Laboratory results published in ChEMBL document CHEMBL1743201, “Casarett and Doull's Toxicology The Basic Science of Poisons, 7th edition” (2008).

Assays:
Assay type in all cases: ADME
[1] = molecular target: T1, Glutathione S-transferase A4 (Homo sapiens, UniProt O15217); assay: Substrates for human cytosolic glutathione transferase GSTA4
T1 sequence (O15217 whole entry): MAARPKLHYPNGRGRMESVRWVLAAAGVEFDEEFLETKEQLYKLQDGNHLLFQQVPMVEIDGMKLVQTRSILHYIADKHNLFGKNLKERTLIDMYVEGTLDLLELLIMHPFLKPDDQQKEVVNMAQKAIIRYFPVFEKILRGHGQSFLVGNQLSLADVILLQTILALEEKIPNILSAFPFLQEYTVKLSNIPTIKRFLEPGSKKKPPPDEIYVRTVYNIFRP

[2] = molecular target: T2, UDP-glucuronosyltransferase 2B17 (Homo sapiens, UniProt O75795); assay: Substrate of human UDP-glucuronosyltransferase UGT2B17
T2 sequence (O75795 whole entry): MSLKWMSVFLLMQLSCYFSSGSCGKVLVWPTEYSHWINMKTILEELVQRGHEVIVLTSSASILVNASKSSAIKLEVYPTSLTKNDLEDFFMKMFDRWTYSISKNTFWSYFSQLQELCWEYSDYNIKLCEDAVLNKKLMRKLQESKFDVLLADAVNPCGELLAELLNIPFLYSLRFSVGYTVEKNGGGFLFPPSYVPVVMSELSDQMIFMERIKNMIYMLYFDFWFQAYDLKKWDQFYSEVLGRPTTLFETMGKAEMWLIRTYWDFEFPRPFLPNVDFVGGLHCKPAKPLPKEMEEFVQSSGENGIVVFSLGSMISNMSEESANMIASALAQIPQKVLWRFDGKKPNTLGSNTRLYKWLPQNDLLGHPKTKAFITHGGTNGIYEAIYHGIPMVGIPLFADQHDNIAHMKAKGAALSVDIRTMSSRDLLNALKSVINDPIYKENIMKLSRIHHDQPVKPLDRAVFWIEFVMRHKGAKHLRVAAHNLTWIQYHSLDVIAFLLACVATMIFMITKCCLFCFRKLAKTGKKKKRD

[3] = molecular target: T3, Maleylacetoacetate isomerase (Homo sapiens, UniProt O43708); assay: Substrates for human cytosolic glutathione transferase GSTZ1
T3 sequence (O43708 whole entry): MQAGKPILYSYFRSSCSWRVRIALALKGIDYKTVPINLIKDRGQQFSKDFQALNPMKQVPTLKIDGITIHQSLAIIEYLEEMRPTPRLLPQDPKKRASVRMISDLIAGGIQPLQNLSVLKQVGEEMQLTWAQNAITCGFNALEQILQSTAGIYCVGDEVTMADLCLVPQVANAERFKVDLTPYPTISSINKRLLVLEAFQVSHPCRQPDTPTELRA

[4] = molecular target: T4, UDP-glucuronosyltransferase 2B4 (Homo sapiens, UniProt P06133); assay: Substrate of human UDP-glucuronosyltransferase UGT2B4
T4 sequence (P06133 whole entry): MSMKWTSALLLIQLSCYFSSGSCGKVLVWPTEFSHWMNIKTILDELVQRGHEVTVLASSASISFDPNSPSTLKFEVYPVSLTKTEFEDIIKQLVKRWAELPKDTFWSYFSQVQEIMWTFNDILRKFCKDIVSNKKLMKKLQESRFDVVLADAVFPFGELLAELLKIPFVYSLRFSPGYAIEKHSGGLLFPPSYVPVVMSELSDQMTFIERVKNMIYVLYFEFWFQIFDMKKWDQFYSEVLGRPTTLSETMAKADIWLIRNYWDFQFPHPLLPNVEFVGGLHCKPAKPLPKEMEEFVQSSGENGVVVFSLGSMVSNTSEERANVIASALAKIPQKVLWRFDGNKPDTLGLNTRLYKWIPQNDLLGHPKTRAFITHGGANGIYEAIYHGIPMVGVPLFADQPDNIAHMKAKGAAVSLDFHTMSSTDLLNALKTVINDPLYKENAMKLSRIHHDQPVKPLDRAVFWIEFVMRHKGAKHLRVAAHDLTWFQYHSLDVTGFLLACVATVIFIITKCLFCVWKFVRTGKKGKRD

[5] = molecular target: T5, Cytochrome P450 2C8 (Homo sapiens, UniProt P10632); assay: Clinically relevant substrates of human liver microsomal P450 enzymes, isoform CYP2C8; details: microsomes
T5 sequence (P10632 whole entry): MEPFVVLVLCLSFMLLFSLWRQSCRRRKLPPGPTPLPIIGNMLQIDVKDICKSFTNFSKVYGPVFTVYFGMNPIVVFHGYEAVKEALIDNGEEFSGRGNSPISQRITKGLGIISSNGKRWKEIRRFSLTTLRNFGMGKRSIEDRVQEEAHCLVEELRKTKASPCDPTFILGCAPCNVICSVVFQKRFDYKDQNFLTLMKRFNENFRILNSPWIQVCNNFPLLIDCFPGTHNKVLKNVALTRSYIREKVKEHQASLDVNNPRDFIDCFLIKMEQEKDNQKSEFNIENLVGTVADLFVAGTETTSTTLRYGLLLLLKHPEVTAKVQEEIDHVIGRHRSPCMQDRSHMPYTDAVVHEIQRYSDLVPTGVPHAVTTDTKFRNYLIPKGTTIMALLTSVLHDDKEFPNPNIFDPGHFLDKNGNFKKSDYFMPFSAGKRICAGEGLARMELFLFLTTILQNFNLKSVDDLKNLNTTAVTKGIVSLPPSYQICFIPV

[6] = molecular target: T5, Cytochrome P450 2C8; assay: Clinically relevant inhibitors of human liver microsomal P450 enzymes, isoform CYP2C8; details: microsomes
[7] = molecular target: T6, UDP-glucuronosyltransferase 1A9 (Homo sapiens, UniProt O60656); assay: Substrate of human UDP-glucuronosyltransferase UGT1A9
T6 sequence (O60656 whole entry): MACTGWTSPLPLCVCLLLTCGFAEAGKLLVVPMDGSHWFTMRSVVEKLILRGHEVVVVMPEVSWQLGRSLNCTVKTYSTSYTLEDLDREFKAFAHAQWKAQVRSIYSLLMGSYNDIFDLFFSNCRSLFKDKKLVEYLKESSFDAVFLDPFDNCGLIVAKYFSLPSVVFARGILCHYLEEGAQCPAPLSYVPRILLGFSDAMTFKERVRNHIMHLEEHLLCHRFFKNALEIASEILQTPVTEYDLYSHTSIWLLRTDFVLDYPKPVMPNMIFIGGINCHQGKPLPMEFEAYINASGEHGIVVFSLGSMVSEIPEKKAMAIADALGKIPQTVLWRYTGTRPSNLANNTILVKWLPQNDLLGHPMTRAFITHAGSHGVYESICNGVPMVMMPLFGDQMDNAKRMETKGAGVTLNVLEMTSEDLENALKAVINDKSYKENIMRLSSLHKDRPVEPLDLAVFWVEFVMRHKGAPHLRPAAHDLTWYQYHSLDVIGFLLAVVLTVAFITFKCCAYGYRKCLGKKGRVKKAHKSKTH

Compound | Activity [2] | Activity [5] | further results
C=C(CC)C(=O)c1ccc(OCC(=O)O)c(Cl)c1Cl [ETHACRYNIC ACID] | – | – | Activity [1]: Substrate
C=CCc1ccc(O)c(OC)c1 [EUGENOL] | Substrate | – | –
O=C(O)CF [FLUOROACETATE] | – | – | Activity [3]: Substrate
O=c1c(O)c(-c2ccccc2)oc2cc(O)cc(O)c12 [GALANGIN] | Substrate | – | –
C[C@H](CCC(=O)O)[C@H]1CC[C@H]2[C@@H]3C[C@H](O)[C@@H]4C[C@H](O)CC[C@]4(C)[C@H]3CC[C@]12C [HYODEOXYCHOLIC_ACID] | – | – | Activity [4]: Substrate
O=C(O)/C=C\C(=O)CC(=O)CC(=O)O [MALEYLACETOACETATE] | – | – | Activity [3]: Substrate
CC(=O)O[C@H]1C(=O)[C@@]2(C)[C@H]([C@H](OC(=O)c3ccccc3)[C@]3(O)C[C@H](OC(=O)[C@H](O)[C@@H](NC(=O)c4ccccc4)c4ccccc4)C(C)=C1C3(C)C)[C@]1(OC(C)=O)CO[C@@H]1C[C@@H]2O [PACLITAXEL] | – | Substrate | –
CCOc1cc(CC(=O)N[C@@H](CC(C)C)c2ccccc2N2CCCCC2)ccc1C(=O)O [REPAGLINIDE] | – | Substrate | –
CN(CCOc1ccc(CC2SC(=O)NC2=O)cc1)c1ccccn1 (configuration not stated) [ROSIGLITAZONE] | – | Substrate | Activity [6]: Inhibitor
COc1cc2ccc(=O)oc2cc1O [SCOPOLETIN] | Substrate | – | Activity [7]: Substrate
